The values that follow are results of earlier work, collected in patent publication US20230233494A1, “BIOAVAILABLE SUGAR-BASED DICLOFENAC FORMULATIONS” (APR Applied Pharma Research SA, priority 2020, published 2023).

Structures are written as SMILES. Structures can show the parent of a compound that is named as a salt.

For the data set the following is noted: at acidic pH.

As to `O=C(O)Cc1ccccc1Nc1c(Cl)cccc1Cl` [diclofenac potassium, [2-(2,6-dichlorophenyl)amino]benzeneacetate, potassium salt], the Solubility entry was “sparingly soluble”.
